Measurements published in PubChem BioAssay (NCI).
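Method: 48-hour compound exposure of cells in 96-well plates, five concentrations, linear interpolation of endpoints. TGI marks complete inhibition of growth.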

Assays:
Test in all cases: NCI tumour cell line growth inhibition, 48 h
[1] = tested on: 786-0 renal
[2] = tested on: A498 renal
[3] = tested on: A549 NSCLC
[4] = tested on: ACHN renal
[5] = tested on: CAKI-1 renal
[6] = tested on: CCRF-CEM leukemia
[7] = tested on: COLO 205 colon
[8] = tested on: DLD-1 colon
[9] = tested on: DMS 114 small cell lung
[10] = tested on: EKVX NSCLC
[11] = tested on: HCC-2998 colon
[12] = tested on: HCT-116 colon
[13] = tested on: HCT-15 colon
[14] = tested on: HL-60(TB) leukemia
[15] = tested on: HOP-18 NSCLC
[16] = tested on: HOP-62 NSCLC
[17] = tested on: HOP-92 NSCLC
[18] = tested on: HT29 colon
[19] = tested on: IGROV1 ovarian
[20] = tested on: K-562 leukemia
[21] = tested on: KM12 colon
[22] = tested on: KM20L2 colon
[23] = tested on: LXFL 529 NSCLC
[24] = tested on: M14 melanoma
[25] = tested on: M19-MEL melanoma
[26] = tested on: MALME-3M melanoma
[27] = tested on: MOLT-4 leukemia
[28] = tested on: NCI-H226 lung
[29] = tested on: NCI-H23 lung
[30] = tested on: NCI-H460 lung
[31] = tested on: NCI-H522 lung
[32] = tested on: OVCAR-3 ovarian
[33] = tested on: OVCAR-4 ovarian
[34] = tested on: OVCAR-8 ovarian
[35] = tested on: RXF 393 renal
[36] = tested on: SF-268 CNS
[37] = tested on: SF-295 CNS
[38] = tested on: SF-539 CNS
[39] = tested on: SK-MEL-2 melanoma
[40] = tested on: SK-MEL-28 melanoma
[41] = tested on: SK-OV-3 ovarian
[42] = tested on: SN12C renal
[43] = tested on: SNB-19 CNS
[44] = tested on: SNB-75 CNS
[45] = tested on: SNB-78 CNS
[46] = tested on: SR leukemia
[47] = tested on: SW-620 colon
[48] = tested on: TK-10 renal
[49] = tested on: U251 CNS
[50] = tested on: UACC-257 melanoma
[51] = tested on: UACC-62 melanoma
[52] = tested on: UO-31 renal
[53] = tested on: XF 498 CNS
[54] = tested on: DMS 273 small cell lung
[55] = tested on: LOX IMVI melanoma
[56] = tested on: OVCAR-5 ovarian
[57] = tested on: RPMI-8226 leukemia
[58] = tested on: SK-MEL-5 melanoma

Measured: TGI

O=C(Cc1nc2ccccc2o1)C(=O)Nc1cccc(Cl)c1
not listed: [54] | [55] | [56] | [57] | [58]
> 100 µM: all other assays above

Cc1ccc(NC(=O)CC/C(CC(=O)C(C)(C)C)=N\NC(=O)C[n+]2ccccc2)cc1C
not listed: [8]
> 100 µM: all other assays above

O=C(OCCCl)C1OC(n2cc(F)c(=O)[nH]c2=O)CC1O (stereo not given)
not listed: [5] | [46] | [54]
> 100 µM: all other assays above
